# Data: patent US11345681B1, “Inhibitors of fibroblast growth factor receptor kinases” (Kinnate Biopharma Inc., priority 2020, dated 2022)
# Molecular target: Wild type FGFR2 (Homo sapiens (Human), UniProt P21802)
# Experiment: FGFR2 kinase assay (fluorescence-based microfluidic mobility shift assay)
# Type: biochemical
# Settings: wild type FGFR2 0.06 nM, 100 μM ATP, 80 minutes at room temperature; class symbols
# Sequence of Wild type FGFR2 (P21802 22-821): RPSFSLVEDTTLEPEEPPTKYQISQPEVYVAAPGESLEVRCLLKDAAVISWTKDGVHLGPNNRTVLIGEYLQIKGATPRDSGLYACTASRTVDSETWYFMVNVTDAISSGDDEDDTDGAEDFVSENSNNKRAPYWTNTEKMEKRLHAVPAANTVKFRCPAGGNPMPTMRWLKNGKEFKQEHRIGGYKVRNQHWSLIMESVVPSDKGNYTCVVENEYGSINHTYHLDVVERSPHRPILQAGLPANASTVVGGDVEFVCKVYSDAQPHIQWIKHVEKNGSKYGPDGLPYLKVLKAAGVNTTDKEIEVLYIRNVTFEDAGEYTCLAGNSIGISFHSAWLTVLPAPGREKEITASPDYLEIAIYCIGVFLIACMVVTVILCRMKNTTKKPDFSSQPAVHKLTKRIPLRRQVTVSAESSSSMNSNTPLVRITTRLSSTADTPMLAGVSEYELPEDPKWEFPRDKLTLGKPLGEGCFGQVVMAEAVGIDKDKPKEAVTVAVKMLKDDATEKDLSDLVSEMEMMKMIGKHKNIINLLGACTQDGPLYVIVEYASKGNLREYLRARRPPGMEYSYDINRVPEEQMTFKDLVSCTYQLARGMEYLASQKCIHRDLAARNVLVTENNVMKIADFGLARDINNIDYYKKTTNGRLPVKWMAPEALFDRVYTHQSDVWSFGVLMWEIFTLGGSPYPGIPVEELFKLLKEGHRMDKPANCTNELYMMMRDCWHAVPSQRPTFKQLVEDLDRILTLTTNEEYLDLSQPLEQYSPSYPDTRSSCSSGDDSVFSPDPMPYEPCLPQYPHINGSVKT
row,IC50 [nM],Structure (SMILES)
1,≤ 100,"C=CC(=O)N1C[C@@H](n2nc(C#Cc3cc4nc(C)n(C5CC5)c4cc3Cl)c(C(N)=O)c2NC)C[C@@H]1[C@H](C)O [Example 221, 1-((3S,5R)-1-Acryloyl-5-((S)-1-hydroxyethyl)pyrrolidin-3-yl)-3-((6-chloro-1-cyclopropyl-2-methyl-1H-benzo[d]imidazol-5-yl)ethynyl)-5-(methylamino)-1H-pyrazole-4-carboxamide]"
2,≤ 100,"C=CC(=O)N1C[C@@H](n2nc(C#Cc3cc4nc(C)n(C5CC5)c4cc3F)c(C(N)=O)c2NC)C[C@@H]1[C@@H](C)O [Example 224, 3-[2-(1-Cyclopropyl-6-fluoro-2-methyl-1,3-benzodiazol-5-yl)ethynyl]-1-[(3S,5R)-5-[(1R)-1-hydroxyethyl]-1-(prop-2-enoyl)pyrrolidin-3-yl]-5-(methylamino)pyrazole-4-carboxamide]"
3,≤ 100,"C=CC(=O)N1C[C@@H](n2nc(C#Cc3cc4nc(C)n(C5CC5)c4cc3F)c(C(N)=O)c2NC)C[C@@H]1[C@H](C)O [Example 225, 3-[2-(1-Cyclopropyl-6-fluoro-2-methyl-1,3-benzodiazol-5-yl)ethynyl]-1-[(3S,5R)-5-[(1S)-1-hydroxyethyl]-1-(prop-2-enoyl)pyrrolidin-3-yl]-5-(methylamino)pyrazole-4-carboxamide]"
4,≤ 100,"CNc1c(C(N)=O)c(C#Cc2cc3nc(C)n(C4CC4)c3cc2Cl)nn1[C@H]1C[C@H](COC)N(C(=O)C#CC(C)(C)O)C1 [Example 228, 3-[2-(6-Chloro-1-cyclopropyl-2-methyl-1,3-benzodiazol-5-yl)ethynyl]-1-[(3S,5R)-1-(4-hydroxy-4-methylpent-2-ynoyl)-5-(methoxymethyl)pyrrolidin-3-yl]-5-(methylamino)pyrazole-4-carboxamide]"
5,≤ 100,"C=CC(=O)N1C[C@@H](n2nc(C#Cc3cc4ncn(C5CCC5)c4cc3Cl)c(C(N)=O)c2NC)C[C@@H]1COC [Example 232, 3-[2-(6-chloro-1-cyclobutyl-1,3-benzodiazol-5-yl)ethynyl]-1-[(3S,5R)-5-(methoxymethyl)-1-(prop-2-enoyl)pyrrolidin-3-yl]-5-(methylamino)pyrazole-4-carboxamide]"
6,≤ 100,"C=CC(=O)N1C[C@@H](n2nc(C#Cc3cc4nc(C)n(C5CCC5)c4cc3Cl)c(C(N)=O)c2NC)C[C@@H]1COC [Example 233, 1-((3S,5R)-1-Acryloyl-5-(methoxymethyl)pyrrolidin-3-yl)-3-((6-chloro-1-cyclobutyl-2-methyl-1H-benzo[d]imidazol-5-yl)ethynyl)-5-(methylamino)-1H-pyrazole-4-carboxamide]"
7,≤ 100,"C=CC(=O)N1C[C@@H](n2nc(C#Cc3cc4ncn(C5COC5)c4cc3F)c(C(N)=O)c2NC)C[C@@H]1COC [Example 234, 3-{2-[6-Fluoro-1-(oxetan-3-yl)-1,3-benzodiazol-5-yl]ethynyl}-1-[(3S,5R)-5-(methoxymethyl)-1-(prop-2-enoyl)pyrrolidin-3-yl]-5-(methylamino)pyrazole-4-carboxamide]"
8,≤ 100,"C=CC(=O)N1C[C@@H](n2nc(C#Cc3cc4ncc(C)cc4cc3F)c(C(N)=O)c2NC)C[C@@H]1COC [Example 236, 3-[2-(6-fluoro-3-methylquinolin-7-yl)ethynyl]-1-[(3S,5R)-5-(methoxymethyl)-1-(prop-2-enoyl)pyrrolidin-3-yl]-5-(methylamino)pyrazole-4-carboxamide]"
9,≤ 100,C=CC(=O)N1C[C@@H](n2nc(C#Cc3cc4ncn(C5COC5)c4cc3Cl)c(C(N)=O)c2NC)C[C@@H]1COC [Example 248]
10,≤ 100,"C=CC(=O)N1C[C@@H](n2nc(C#Cc3cc4nc(C)n(C5COC5)c4cc3Cl)c(C(N)=O)c2NC)C[C@@H]1COC [Example 249, 3-{2-[6-chloro-2-methyl-1-(oxetan-3-yl)-1,3-benzodiazol-5-yl]ethynyl}-1-[(3S,5R)-5-(methoxymethyl)-1-(prop-2-enoyl)pyrrolidin-3-yl]-5-(methylamino)pyrazole-4-carboxamide]"

# Second part, the compound before the results:
row,Structure (SMILES),IC50 [nM]
1,"C=CC(=O)N1C[C@@H](n2nc(C#Cc3cc4ncn(C5CC5)c4cc3Cl)c(C(N)=O)c2NC)C[C@@H]1[C@@H](C)O [Example 222, 3-[2-(6-Chloro-1-cyclopropyl-1,3-benzodiazol-5-yl)ethynyl]-1-[(3S,5R)-5-[(1R)-1-hydroxyethyl]-1-(prop-2-enoyl)pyrrolidin-3-yl]-5-(methylamino)pyrazole-4-carboxamide]",≤ 100
2,"C=CC(=O)N1C[C@@H](n2nc(C#Cc3cc4ncn(C5CC5)c4cc3Cl)c(C(N)=O)c2NC)C[C@@H]1[C@H](C)O [Example 223, 3-[2-(6-chloro-1-cyclopropyl-1,3-benzodiazol-5-yl)ethynyl]-1-[(3S,5R)-5-[(1S)-1-hydroxyethyl]-1-(prop-2-enoyl)pyrrolidin-3-yl]-5-(methylamino)pyrazole-4-carboxamide]",≤ 100
3,"CNc1c(C(N)=O)c(C#Cc2cc3nc(C)n(C4CC4)c3cc2F)nn1[C@H]1C[C@H](COC)N(C(=O)C#CC(C)(C)O)C1 [Example 227, 3-[2-(1-Cyclopropyl-6-fluoro-2-methyl-1,3-benzodiazol-5-yl)ethynyl]-1-[(3S,5R)-1-(4-hydroxy-4-methylpent-2-ynoyl)-5-(methoxymethyl)pyrrolidin-3-yl]-5 (methylamino)pyrazole-4-carboxamide]",≤ 100
4,"C=CC(=O)N1C[C@@H](n2nc(C#Cc3cc4ncn(C5CC5)c4cc3F)c(C(N)=O)c2N)C[C@@H]1[C@@H](C)O [Example 240, 5-Amino-3-[2-(1-cyclopropyl-6-fluoro-1,3-benzodiazol-5-yl)ethynyl]-1-[(3S,5R)-5-[(1R)-1-hydroxyethyl]-1-(prop-2-enoyl)pyrrolidin-3-yl]pyrazole-4-carboxamide]",≤ 100
5,"C=CC(=O)N1C[C@@H](n2nc(C#Cc3cc4ncn(C5CC5)c4cc3F)c(C(N)=O)c2N)C[C@@H]1[C@H](C)O [Example 241, 5-Amino-3-[2-(1-cyclopropyl-6-fluoro-1,3-benzodiazol-5-yl)ethynyl]-1-[(3S,5R)-5-[(1S)-1-hydroxyethyl]-1-(prop-2-enoyl)pyrrolidin-3-yl]pyrazole-4-carboxamide]",≤ 100
6,"C=CC(=O)N1C[C@@H](n2nc(C#Cc3cc4nc(C)n(C5CC5)c4cc3Cl)c(C(N)=O)c2N)C[C@@H]1[C@@H](C)O [Example 244, 1-((3S,5R)-1-Acryloyl-5-((R)-1-hydroxyethyl)pyrrolidin-3-yl)-5-amino-3-((6-chloro-1-cyclopropyl-2-methyl-1H-benzo[d]imidazol-5-yl)ethynyl)-1H-pyrazole-4-carboxamide]",≤ 100
7,"C=CC(=O)N1C[C@@H](n2nc(C#Cc3cc4nc(C)n(C5CC5)c4cc3Cl)c(C(N)=O)c2N)C[C@@H]1[C@H](C)O [Example 245, 1-((3S,5R)-1-Acryloyl-5-((S)-1-hydroxyethyl)pyrrolidin-3-yl)-5-amino-3-((6-chloro-1-cyclopropyl-2-methyl-1H-benzo[d]imidazol-5-yl)ethynyl)-1H-pyrazole-4-carboxamide]",≤ 100
8,C=CC(=O)N1C[C@@H](n2nc(C#Cc3cc4nc(C)n(C5CC5)c4cc3F)c(C(N)=O)c2N)C[C@@H]1[C@@H](C)O [Example 246],≤ 100
9,"C=CC(=O)N1C[C@@H](n2nc(C#Cc3cc4nc(C)n(C5CC5)c4cc3F)c(C(N)=O)c2N)C[C@@H]1[C@H](C)O [Example 247, 5-Amino-3-[2-(1-cyclopropyl-6-fluoro-2-methyl-1,3-benzodiazol-5-yl)ethynyl]-1-[(3S,5R)-5-[(1S)-1-hydroxyethyl]-1-(prop-2-enoyl)pyrrolidin-3-yl]pyrazole-4-carboxamide]",≤ 100
